# In PubChem BioAssay (NCI):
#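 Each compound was tested at five concentrations against cells in 96-well plates for 48 hours. GI50 = concentration required for 50% inhibition of growth. Definition used: TGI = concentration required for complete inhibition of growth.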
# What was measured:
# Experiment in all cases: NCI-60 cell line screen, 48 h
# [1] = test system: SK-MEL-5 melanoma
# [2] = test system: DU-145 prostate
# [3] = test system: SF-539 CNS
# [4] = test system: UACC-257 melanoma
# [5] = test system: CAKI-1 renal
# [6] = test system: A549 NSCLC
# [7] = test system: 786-0 renal
# [8] = test system: SF-295 CNS
# [9] = test system: RXF 393 renal
# [10] = test system: HCT-116 colon
# [11] = test system: SK-MEL-2 melanoma
# [12] = test system: UO-31 renal
# [13] = test system: BT-549 breast
# [14] = test system: OVCAR-4 ovarian
# [15] = test system: HT29 colon
# [16] = test system: K-562 leukemia
# [17] = test system: M14 melanoma
# [18] = test system: SF-268 CNS
# [19] = test system: NCI/ADR-RES ovarian
# [20] = test system: PC-3 prostate
# [21] = test system: NCI-H522 lung
# [22] = test system: MOLT-4 leukemia
# [23] = test system: MDA-N
# [24] = test system: HCC-2998 colon
# [25] = test system: NCI-H226 lung
# [26] = test system: ACHN renal
# [27] = test system: IGROV1 ovarian
# [28] = test system: A498 renal
# [29] = test system: TK-10 renal
# [30] = test system: OVCAR-3 ovarian
# [31] = test system: SR leukemia
# [32] = test system: OVCAR-8 ovarian
# [33] = test system: SN12C renal
# [34] = test system: CCRF-CEM leukemia
# [35] = test system: HS 578T breast
# [36] = test system: T-47D breast
# [37] = test system: MDA-MB-435
# [38] = test system: MCF7 breast
# [39] = test system: HOP-62 NSCLC
# [40] = test system: SW-620 colon
# [41] = test system: MDA-MB-231 breast
# [42] = test system: OVCAR-5 ovarian
# [43] = test system: SK-OV-3 ovarian
# [44] = test system: SK-MEL-28 melanoma
# [45] = test system: RPMI-8226 leukemia
# [46] = test system: SNB-19 CNS
# [47] = test system: NCI-H460 lung
# [48] = test system: SNB-75 CNS
# [49] = test system: COLO 205 colon
# [50] = test system: HCT-15 colon
# [51] = test system: MALME-3M melanoma
# [52] = test system: EKVX NSCLC
# [53] = test system: KM12 colon
# [54] = test system: NCI-H23 lung
# [55] = test system: HOP-92 NSCLC
# [56] = test system: UACC-62 melanoma
# [57] = test system: U251 CNS
# [58] = test system: HL-60(TB) leukemia
# [59] = test system: LOX IMVI melanoma
compound,measurement,setting,value
Cc1nn(-c2ccc(S(=O)(=O)[O-])cc2)c([O-])c1N=[N+](C)c1ccc(-c2ccc(N=Nc3ccc4c(S(=O)(=O)[O-])cc(S(=O)(=O)[O-])c(N)c4c3[O-])c([O-])c2)cc1[O-].[Cu+2].[Cu+2].[Na+],GI50,[1],> 100 µM
same,TGI,[1],> 100 µM
same,GI50,[2],> 100 µM
same,TGI,[2],> 100 µM
same,GI50,[3],> 100 µM
same,TGI,[3],> 100 µM
same,GI50,[4],> 100 µM
same,TGI,[4],> 100 µM
same,GI50,[5],> 100 µM
same,TGI,[5],> 100 µM
same,GI50,[6],> 100 µM
same,TGI,[6],> 100 µM
same,GI50,[7],> 100 µM
same,TGI,[7],> 100 µM
same,GI50,[8],> 100 µM
same,TGI,[8],> 100 µM
same,GI50,[9],> 100 µM
same,TGI,[9],> 100 µM
same,GI50,[10],> 100 µM
same,TGI,[10],> 100 µM
same,GI50,[11],> 100 µM
same,TGI,[11],> 100 µM
same,GI50,[12],3.19 µM
same,TGI,[12],> 100 µM
same,GI50,[13],> 100 µM
same,TGI,[13],> 100 µM
same,GI50,[14],> 100 µM
same,TGI,[14],> 100 µM
same,GI50,[15],> 100 µM
same,TGI,[15],> 100 µM
same,GI50,[16],> 100 µM
same,TGI,[16],> 100 µM
same,GI50,[17],> 100 µM
same,TGI,[17],> 100 µM
same,GI50,[18],> 100 µM
same,TGI,[18],> 100 µM
same,GI50,[19],> 100 µM
same,TGI,[19],> 100 µM
same,GI50,[20],> 100 µM
same,TGI,[20],> 100 µM
same,GI50,[21],> 100 µM
same,TGI,[21],> 100 µM
same,GI50,[22],> 100 µM
same,TGI,[22],> 100 µM
same,GI50,[23],> 100 µM
same,TGI,[23],> 100 µM
same,GI50,[24],> 100 µM
same,TGI,[24],> 100 µM
same,GI50,[25],> 100 µM
same,TGI,[25],> 100 µM
same,GI50,[26],> 100 µM
same,TGI,[26],> 100 µM
same,GI50,[27],> 100 µM
same,TGI,[27],> 100 µM
same,GI50,[28],> 100 µM
same,TGI,[28],> 100 µM
same,GI50,[29],> 100 µM
same,TGI,[29],> 100 µM
same,GI50,[30],> 100 µM
same,TGI,[30],> 100 µM
same,GI50,[31],> 100 µM
same,TGI,[31],> 100 µM
same,GI50,[32],> 100 µM
same,TGI,[32],> 100 µM
same,GI50,[33],> 100 µM
same,TGI,[33],> 100 µM
same,GI50,[34],> 100 µM
same,TGI,[34],> 100 µM
same,GI50,[35],> 100 µM
same,TGI,[35],> 100 µM
same,GI50,[36],> 100 µM
same,TGI,[36],> 100 µM
same,GI50,[37],> 100 µM
same,TGI,[37],> 100 µM
same,GI50,[38],> 100 µM
same,TGI,[38],> 100 µM
same,GI50,[39],> 100 µM
same,TGI,[39],> 100 µM
same,GI50,[40],> 100 µM
same,TGI,[40],> 100 µM
same,GI50,[41],> 100 µM
same,TGI,[41],> 100 µM
same,GI50,[42],> 100 µM
same,TGI,[42],> 100 µM
same,GI50,[43],> 100 µM
same,TGI,[43],> 100 µM
same,GI50,[44],> 100 µM
same,TGI,[44],> 100 µM
same,GI50,[45],> 100 µM
same,TGI,[45],> 100 µM
same,GI50,[46],> 100 µM
same,TGI,[46],> 100 µM
same,GI50,[47],> 100 µM
same,TGI,[47],> 100 µM
same,GI50,[48],> 100 µM
same,TGI,[48],> 100 µM
same,GI50,[49],> 100 µM
same,TGI,[49],> 100 µM
same,GI50,[50],> 100 µM
same,TGI,[50],> 100 µM
same,GI50,[51],> 100 µM
same,TGI,[51],> 100 µM
same,GI50,[52],> 100 µM
same,TGI,[52],> 100 µM
same,GI50,[53],> 100 µM
same,TGI,[53],> 100 µM
same,GI50,[54],> 100 µM
same,TGI,[54],> 100 µM
same,GI50,[55],> 100 µM
same,TGI,[55],> 100 µM
same,GI50,[56],> 100 µM
same,TGI,[56],> 100 µM
same,GI50,[57],> 100 µM
same,TGI,[57],> 100 µM
CSC1=Nc2ccccc2N(C)c2c1c(-c1ccccc1)nn2C,TGI,[1],43.4 µM
same,TGI,[2],> 100 µM
same,TGI,[3],> 100 µM
same,TGI,[4],> 100 µM
same,TGI,[5],> 100 µM
same,TGI,[6],> 100 µM
same,TGI,[8],33.6 µM
same,TGI,[9],> 100 µM
same,TGI,[10],> 100 µM
same,TGI,[11],82.7 µM
same,TGI,[13],> 100 µM
same,TGI,[14],> 100 µM
same,TGI,[15],> 100 µM
same,TGI,[16],55.9 µM
same,TGI,[17],> 100 µM
same,TGI,[18],> 100 µM
same,TGI,[19],> 100 µM
same,TGI,[20],> 100 µM
same,TGI,[58],34.3 µM
same,TGI,[21],> 100 µM
same,TGI,[22],31.7 µM
same,TGI,[23],> 100 µM
same,TGI,[24],56 µM
same,TGI,[26],> 100 µM
same,TGI,[27],> 100 µM
same,TGI,[29],> 100 µM
same,TGI,[30],> 100 µM
same,TGI,[31],95 µM
same,TGI,[32],> 100 µM
same,TGI,[33],> 100 µM
same,TGI,[34],53.1 µM
same,TGI,[35],> 100 µM
same,TGI,[36],49.7 µM
same,TGI,[37],> 100 µM
same,TGI,[38],> 100 µM
same,TGI,[40],> 100 µM
same,TGI,[41],> 100 µM
same,TGI,[42],> 100 µM
same,TGI,[43],> 100 µM
same,TGI,[44],> 100 µM
same,TGI,[45],37.1 µM
same,TGI,[47],> 100 µM
same,TGI,[48],> 100 µM
same,TGI,[49],> 100 µM
same,TGI,[50],> 100 µM
same,TGI,[52],> 100 µM
same,TGI,[53],> 100 µM
same,TGI,[59],> 100 µM
same,TGI,[54],> 100 µM
same,TGI,[55],> 100 µM
same,TGI,[56],> 100 µM
same,TGI,[57],> 100 µM
C/C(=N\NC(=S)NC(C)C)c1nc2ncccc2[nH]1,TGI,[1],> 100 µM
same,TGI,[2],> 100 µM
same,TGI,[3],> 85 µM
same,TGI,[4],> 100 µM
same,TGI,[5],> 89.1 µM
same,TGI,[6],> 100 µM
same,TGI,[7],> 100 µM
same,TGI,[8],35.6 µM
same,TGI,[9],> 100 µM
same,TGI,[10],> 100 µM
same,TGI,[11],> 77.6 µM
same,TGI,[12],44.9 µM
same,TGI,[13],58.9 µM
same,TGI,[14],> 100 µM
same,TGI,[15],> 100 µM
same,TGI,[16],> 100 µM
same,TGI,[17],> 100 µM
same,TGI,[18],> 100 µM
same,TGI,[19],> 100 µM
same,TGI,[20],> 100 µM
same,TGI,[58],> 100 µM
same,TGI,[21],> 76.3 µM
same,TGI,[22],> 100 µM
same,TGI,[23],> 100 µM
same,TGI,[24],> 100 µM
same,TGI,[25],51.3 µM
same,TGI,[26],> 100 µM
same,TGI,[27],> 80.1 µM
same,TGI,[28],> 100 µM
same,TGI,[29],73.8 µM
same,TGI,[30],> 100 µM
same,TGI,[31],> 100 µM
same,TGI,[32],52.7 µM
same,TGI,[33],> 100 µM
same,TGI,[34],> 100 µM
same,TGI,[35],69.7 µM
same,TGI,[36],> 95.1 µM
same,TGI,[38],> 100 µM
same,TGI,[39],> 64.2 µM
same,TGI,[40],> 100 µM
same,TGI,[41],> 100 µM
same,TGI,[42],> 100 µM
same,TGI,[43],33.4 µM
same,TGI,[44],> 100 µM
same,TGI,[45],> 100 µM
same,TGI,[46],> 91.6 µM
same,TGI,[47],> 100 µM
same,TGI,[48],> 66.7 µM
same,TGI,[49],> 100 µM
same,TGI,[50],> 100 µM
same,TGI,[51],> 100 µM
same,TGI,[52],> 69.7 µM
same,TGI,[53],> 100 µM
same,TGI,[59],> 100 µM
same,TGI,[55],84.3 µM
same,TGI,[56],98.7 µM
same,TGI,[57],> 100 µM
